Experimental data: US20030175678A1, “Methods for identifying genes regulating desired cell phenotypes” (priority 2001, published 2003)

Experiments:
PAL, CHS, and F3-OH [1] = test: Quantitative RT-PCR of PAL, CHS and F3-OH transcripts in C. dejecta cells; type: cell-based, Crassula dejecta; conditions: after 48 hours
Description: (§1) Differential induction of mRNA transcripts associated with the synthesis of catechin derivatives in the C. barkleyi suspension culture (as described in Example 2) and the C. dejecta suspension culture (as described in Example 3) were performed in 250 mL conical flasks containing 100 mL of a secondary metabolite production medium B49 (Gamborg's B5, 5% sucrose, no hormones), inoculated with 16 mL of a 14 day old suspension culture (C. barkleyi) or 40 mL of a 21 day old suspension culture (C. dejecta). The cultures were incubated under low light conditions (approximately 30 lux) at 25° C.
(§2) Induction of mRNA usually occurs within 48 hours of receipt of an inducing signal. Accordingly, samples were taken at intervals of 2, 4, 6, 10, 15, 24, and 48 hours following the above treatments. Samples, sufficient to give at least 1 mL packed cell volume, were centrifuged for five minutes at 4000 rpm and the supernatant removed. […]
(§3) This mixture was incubated at 42° C. for 50 min then denatured at 70° C. for 15 min and stored at −20° C., after a thirty-fold dilution with distilled water. An aliquot of this reaction was then used to quantify the relative abundance of each of the three genes (PAL, CHS, F3-OH) to the invariant one (TBP), using a real time quantification PCR machine (Perkin Elmer 7700) and the previously described oligonucleotides (shown in FIG. 7) in the following conditions: […]

[2] = system: C. barkleyi suspension culture; test: Differential induction of catechin accumulation in Crassula barkleyi suspension culture; type: cell-based; conditions: B49 medium, treated seven days after inoculation, sampled for 17 days
Description: Differential induction of catechin derivatives in the C. barkleyi suspension culture was performed in 250 mL conical flasks containing 100 mL of a secondary metabolite production medium B49 (Gamborg's B5, with 5% sucrose, and no hormones), inoculated with 16 mL of 14 day old suspension culture. The cultures were incubated under low light conditions (approximately 30 lux) at 25° C. for seven days after inoculation. Cultures were then treated using one of each of the following protocols (untreated cultures were also maintained as controls):
(2) Autoclaved aqueous 2,4-D (1 mg/L final concentration) was added;
(4) Filter-sterilized aqueous DL-phenylalanine (200 mg/L) was added;
(6) Filter-sterilized aqueous zeatin (10 μM) was added;
(7) Filter-sterilized aqueous 1-aminocyclopropane-1-carboxylic acid (10 mg/L final concentration) was added;
(8) Filter-sterilized 24-epibrassinolide (1 mg/L final concentration) was added;
(9) Incubation at a temperature of 16° C.; or (10) High light regime (approximately 160 lux).
(§4) Ten milliliter culture samples were taken at regular intervals for 17 days following the day of subculture to B49 medium. All culture samples were centrifuged for five minutes at 4000 rpm, and the cell residue was freeze-dried. Extraction, sample preparation, and HPLC analysis were performed as described in Example 1.

[3] = system: C. dejecta suspension culture; test: Differential induction of catechin accumulation in Crassula dejecta suspension culture; type: cell-based
Description: Differential induction of catechin derivatives in the C. dejecta suspension culture was performed in 250 mL conical flasks containing 100 mL of B105 growth medium or 100 mL of a secondary metabolite production medium B49 (Gamborg's B5, with 5% sucrose, and no hormones), inoculated with 40 mL of 21 day old suspension culture. The cultures were incubated under low light conditions (approximately 30 lux) at 25° C. Cultures were treated using one of each of the following protocols:
(1) B105 growth medium (no additions) used as is;
(3) Filter-sterilized aqueous zeatin (10 μM) was added at day 7 to a culture grown on B105 medium;
(4) B49 production medium (no additions) used as is;
as §4, with “(6) Filter-sterilized clofibrate (0.5 mM final concentration) was added at day 7 to a culture grown on B49 medium. Ten” for “Ten”, “milliliters of” for “milliliter”, “to B105 or” for “to”

terpene cyclases = test: PCR with degenerate terpene cyclase primers in Ajuga reptans cultures; type: cell-based; conditions: 24 hour post-treatment cultures
PAL, CHS, and F3-OH [4] = test: Quantitative RT-PCR of PAL, CHS and F3-OH transcripts in C. barkleyi cells; type: cell-based, Crassula barkleyi; conditions: after 24 hours of treatment, relative to TBP
Description: as §1, §2, §3

- PCR band of first degenerate primer combination (terpene cyclases): induced
Compound: CC/C=C\CC1C(=O)CCC1CC(=O)OC (stereo not shown) [methyl jasmonate]
- induction of PAL, CHS, and F3-OH genes (PAL, CHS, and F3-OH [1]): at least 6 fold
- catechin biosynthesis and EGCG accumulation [2]: induced catechin biosynthesis and EGCG accumulation
- induction of EGCG and other catechins ([3]; cultures grown on both B105 and B49 media, added at day 7): induced EGCG and other catechins
- accumulation of EGCG ([3]; on B49, methyl jasmonate added at day 7): ten-fold
- PCR band of second degenerate primer combination (candidate cyclase for compound 6) (terpene cyclases): not
- induction of transcription of PAL, CHS, and F3-OH (PAL, CHS, and F3-OH [4]): at least twenty fold
